Reference: patent US20230364204A1, “Bioactive Peptides, Compositions, Production Process, and Use of Bioactive Peptides as Anti-Tumoral Agents” (priority 2022, published 2023)

Legend:
[1] = tested on: MDAMB231 cells (triple negative); test: MTT cell viability, tumor cells; assay type: cell-based
Description: For the method of MTT, the cells were plated in 96-well sterile plates for cell culture with a cap at the density of 2 × 10^4 cells/well for treatments lasting 24 h and 1 × 10^4 cells/well for treatments lasting 48 h or more, completing the volume to 100 µL with culture medium. The plates were incubated for 8-16 h in an incubator at 37° C. and 5% CO2. The next day, the treatments were prepared in culture medium, applying 200 µL/well at the desired concentration, and the plates were placed in an incubator at 37° C. and 5% CO2for the duration of treatment. After the treatment period, 20 µL/well of a MTT solution was added in PBS (1×) at a concentration of 5 mg/mL, and the dye was incubated at 37° C. and 5% CO2 for 2.5 h. After incubation with MTT, Formazan salts were solubilized with the addition of 200 µL of dimethylsulfoxide solution (DMSO): isopropanol (3:1) and agitated for at least 15 minutes at room temperature. After complete dissolution of the salts, the absorbance was read in a spectrophotometer at 570 nm with endpoint protocol.
The calculation of cell viability was performed using the formula: […]
O.D.: optical density captured by spectrophotometer
NOTE: The Basal O.D. is the one found in the blank wells.
In order to determine the efficacy (comparison of doses and times for the MDAMB231 cell line) and safety (comparison between the effects on MDAMB231 and HDFa cells) of the peptide SEQ ID 1 - MFYPDSRCRGPSET (C-terminal region of Crotoxin B), named 3-NAntC, the Analysis of Variance (ANOVA) with Bonferroni post-hoc test was applied to the significance of 5% in GraphPad Prism software version 6.0.

[2] = tested on: Rho-GTPases (Rho-A, Rho-C), protein elongation mechanism; test: Proteomics analysis; assay type: cell-based; settings: data not shown
MDAMB231 cells [3] = test: BrdU cellular proliferation, tumor cells; assay type: cell-based; settings: MDAMB231, 24 h, 0.2 µg/mL (minimum decrease)
Description: The method of Bomodeoxyuridine (BrdU) quantification was carried out according to the Standard Operational Protocols Nos. 10 and 12 of the Laboratory of Clinical Cytology of the Faculty of Pharmaceutical Sciences of Ribeirao Preto (FCFRP -USP). In this method, for the BrdU quantification, cells were plated in 96-well sterile plates for cell culture with a cap at the density of 2 × 10^4 cells/well for treatments lasting 24 h and 1 × 10^4 cells/well for treatments with 48 h or more, completing the volume to 100 µL with culture medium. The plates were incubated for 8-16 h in an incubator at 37° C. and 5% CO2. The next day, the treatments were prepared in culture medium, applying 200 µL/well at the desired concentration, and the plates were placed in an incubator at 37° C. and 5% CO2 for the duration of treatment. After the treatment period, 20 µL/well of a BrdU-labeling was added and incubated at 37° C. and 5% CO2 for 2.5 h. After incubation with BrdU labeling, the plates were stored at 2-4° C. up to 1 week. […] Substrate was developed for 15 minutes and reaction was stopped with HCl 6 M solution and read in a spectrophotometer at 495 nm with endpoint.
The calculation of cell proliferation was performed using the formula: […]
O.D.: optical density captured by spectrophotometer NOTE: The Basal O.D. is the one found in the blank wells. […]

MDAMB231 cells [4] = test: MTT with or without autophagy inhibitor 3-methyladenine (3-MA); assay type: cell-based
Description: The 3-Methyladenine (3-MA) is an autophagy inhibitor (blocks the activation of this mechanism of action). For molecules that trigger autophagy as a cell death mechanism when this pathway is blocked the molecule loses action.
The MTT method was carried out as previously described herein, comparing the effect of 3-NAntC with or without 3-Methyladenine (3-MA).
In order to determine the effects of the peptide in LDH release, autophagy induction and apoptosis/necrosis profile of MDAMB231 cell line, the Analysis of Variance (ANOVA) with Dunnet and Bonferroni post-hoc tests were applied to the significance of 5% in GraphPad Prism software version 6.0.

MDAMB231 cell line = test: Cell cycle progression (propidium iodide flow cytometry); assay type: cell-based; settings: MDAMB231, 48 h, highest dosage
Description: For cell cycle progression method, cells were plated in 6-well sterile plates for cell culture with a cap at the density of 2.5 × 10^5 cells/well for treatments lasting 24 h or more, completing the volume with 1000 µL culture medium. The plates were incubated for 8-16 h in an incubator at 37° C. and 5% CO2. The next day, the treatments were prepared in culture medium, applying 2000 µL/well at the desired concentration, and the plates were placed in an incubator at 37° C. and 5% CO2 for the duration of treatment. After the treatment period, cells were collected in a conic 15 mL tube and washed with 1000 µL of PBS (1×). Cells were resuspended in 500 µL/tube of PBS (1×) and 4.5 mL of Ethanol 70°. Then, tubes were closed and kept at 2-4° C. for up to 2 months. Cells were washed with PBS (1×) and resuspended with 135 µL of PBS (1×). A solution of RnaseA at 100 µg/mL was added and incubated at RT for 30 minutes. After incubation, cells were labeled with 2 µL of Propidium Iodide at 100 µg/mL and read at the flow cytometer for size and DNA content.
In order to determine the effects of the peptide in cell cycle progression (MDAMB231 cell line), the Analysis of Variance (ANOVA) with Dunnet post-hoc test was applied to the significance of 5% in GraphPad Prism software version 6.0.

[5] = tested on: NFKB, Caspases (Caspase 9); test: Western blot protein expression; assay type: cell-based; settings: compared to the negative control
zebrafish embryos = test: Tolerability in zebrafish embryos; assay type: in vivo; settings: even at a dose 50,000 times higher than the in vitro MDAMB231 IC50 at 24 h

CSCC[C@H](N)C(=O)N[C@@H](Cc1ccccc1)C(=O)N[C@@H](Cc1ccc(O)cc1)C(=O)N1CCC[C@H]1C(=O)N[C@@H](CC(=O)O)C(=O)N[C@@H](CO)C(=O)N[C@@H](CCCNC(=N)N)C(=O)N[C@@H](CS)C(=O)N[C@@H](CCCNC(=N)N)C(=O)NCC(=O)N1CCC[C@H]1C(=O)N[C@@H](CO)C(=O)N[C@@H](CCC(=O)O)C(=O)N[C@H](C(=O)O)[C@@H](C)O [3-NAntC, [H]-MFYPDSRCRGPSET-[OH]]
compared efficacy in decreasing MDAMB231 cells' viability (MTT, FIG. 13/14) ([1]; MDAMB231, SEQ IDs 2-10 compared to SEQ ID 1): highest antitumor effect | antitumor effect compared to Cisplatin (MTT) ([1]; MDAMB231, as early as 48 h of treatment): exceeds the antitumor effect of Cisplatin | Rho-GTPases expression (e.g. Rho-A and Rho-C) [2]: diminished | protein elongation mechanism [2]: continuously disabling | decrease of proliferation rate (BrdU) (MDAMB231 cells [3]): 33% | activity with and without the autophagy inhibitor 3-MA (MTT) (MDAMB231 cells [4]): remains the same | decrease in cells in G0/G1 (MDAMB231 cell line): 8.72% | increase of G2/M percentage (MDAMB231 cell line): 8.08% | activation of Caspases, namely Caspase 9 [5]: greater activation | activation of pro-survival signals such as NFKB [5]: may inhibit the activation | embryo survival (zebrafish embryos): high embryo survival | tolerability in zebrafish embryos (zebrafish embryos): well tolerated
